From publication PMC4357015, “Structure, Function and Inhibition of the Phosphoethanolamine Methyltransferases of the Human Malaria Parasites Plasmodium vivax and Plasmodium knowlesi” (Scientific Reports, 2015)

Biological target: T1, PvPMT (Plasmodium vivax, UniProt A5K867)
T1 sequence (A5K867 1-264): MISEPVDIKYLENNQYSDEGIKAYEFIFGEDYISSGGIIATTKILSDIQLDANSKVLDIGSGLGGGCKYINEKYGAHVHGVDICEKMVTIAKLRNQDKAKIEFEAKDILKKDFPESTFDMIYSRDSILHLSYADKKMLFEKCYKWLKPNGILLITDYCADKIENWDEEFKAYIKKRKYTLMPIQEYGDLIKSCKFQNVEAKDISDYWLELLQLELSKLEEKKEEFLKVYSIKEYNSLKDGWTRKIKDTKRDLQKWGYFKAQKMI
Assay: radiometric PMT transmethylation assay, inhibition of PvPMT
Assay type: biochemical
Settings: P-Etn 2 mM, SAM 1.5 mM; inhibitor 0, 100, 500, 1000 μM; read-out: IC50, inhibition of PvPMT activity
Method: Figure 3 Amodiaquine (AQ) and NSC158011 inhibit the activity of PvPMT and PkPMT. Enzyme inhibition assays with different concentrations of Amodiaquine (AQ), NSC158011 and Chloroquine (CQ) were carried out at constant P-Etn (2 mM) and SAM (1.5 mM) concentrations. The activity in the absence of any drug was taken as 100% and % enzyme activity was calculated in the presence of different drug concentrations (100, 500, 1000 μM). To determine the concentration that results in 50% inhibition of enzyme activity (IC50), the data were fitted to a non-linear regression analysis in the following equation Y = 100/(1 + ([X]/IC50)), where Y is % enzyme activity and X is drug concentration using Graph pad software.
For enzyme kinetics studies recombinant histidine-tagged proteins were expressed using 1 mM IPTG for 4 h, purified using Ni-affinity purification and dialyzed. As expected, purified proteins migrated in SDS-PAGE gels at approximately 31 kDa. The purified proteins were stored in HEPES-KOH buffer (pH 7.4) at 4°C and were assayed within a month of purification. During this time, the integrity of the protein was assessed by SDS-PAGE. The kinetic properties of enzymes were assessed using radiometric assay wherein incorporation of radioactive labeled methyl donor (100nCi [methyl-^14C] SAM, Perkin elmer NEC363010UC) or (200nCi [methyl-^3H] SAM, Perkin Elmer NET155H250UC) was measured. […]

CCN(CC)Cc1cc(Nc2ccnc3cc(Cl)ccc23)ccc1O [AQ, amodiaquine]
IC50: 220 µM
